Results reported in patent US10155802B2, “Locally-active anticoagulants and anti-inflammatory agents” (priority 2011, dated 2018).
Where two headings read alike, the source gives them in different places. No end group written: not given here.

How the values were obtained:
[1] = estimated (Cochran 2001), cited from earlier work
rat-tail collagen type I = target: T1, rat-tail collagen type I (Rattus norvegicus, UniProt P02454+P02466); test: Peptide-collagen binding by reduction of collagen fibril alignment (deuterium coupling constant); conditions: collagen gelation under magnetic field in presence of peptide
T1 construct: purchased BD Bioscience; host or cells: rat tail (tissue-derived)
T1 sequence (P02454 152-1207): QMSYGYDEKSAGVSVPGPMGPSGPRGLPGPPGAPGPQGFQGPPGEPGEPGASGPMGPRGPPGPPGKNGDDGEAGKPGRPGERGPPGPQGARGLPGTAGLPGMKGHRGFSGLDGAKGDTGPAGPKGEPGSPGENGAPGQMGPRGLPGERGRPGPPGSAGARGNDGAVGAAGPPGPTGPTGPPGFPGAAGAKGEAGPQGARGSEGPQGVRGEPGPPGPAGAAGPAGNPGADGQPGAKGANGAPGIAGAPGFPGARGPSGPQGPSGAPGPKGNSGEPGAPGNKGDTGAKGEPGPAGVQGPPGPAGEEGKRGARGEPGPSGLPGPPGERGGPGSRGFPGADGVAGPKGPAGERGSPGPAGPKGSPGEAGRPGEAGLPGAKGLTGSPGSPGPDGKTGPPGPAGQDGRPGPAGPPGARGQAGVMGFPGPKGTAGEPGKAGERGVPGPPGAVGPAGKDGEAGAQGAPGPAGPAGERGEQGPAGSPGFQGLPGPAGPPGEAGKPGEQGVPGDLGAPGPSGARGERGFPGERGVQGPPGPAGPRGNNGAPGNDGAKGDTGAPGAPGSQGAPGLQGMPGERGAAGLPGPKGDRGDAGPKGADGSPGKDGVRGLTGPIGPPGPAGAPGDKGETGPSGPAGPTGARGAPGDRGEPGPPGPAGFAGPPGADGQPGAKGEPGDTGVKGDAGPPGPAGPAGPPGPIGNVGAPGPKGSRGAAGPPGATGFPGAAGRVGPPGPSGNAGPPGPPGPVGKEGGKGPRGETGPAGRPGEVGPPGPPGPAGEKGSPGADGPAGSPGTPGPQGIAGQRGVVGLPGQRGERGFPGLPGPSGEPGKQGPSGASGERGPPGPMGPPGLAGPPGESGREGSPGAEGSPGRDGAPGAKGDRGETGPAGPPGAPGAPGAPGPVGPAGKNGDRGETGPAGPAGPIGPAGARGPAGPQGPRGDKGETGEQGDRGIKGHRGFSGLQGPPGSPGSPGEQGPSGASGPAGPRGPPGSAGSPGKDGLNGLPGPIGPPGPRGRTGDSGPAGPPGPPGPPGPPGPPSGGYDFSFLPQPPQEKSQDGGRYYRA
T1 sequence (P02466 86-1125): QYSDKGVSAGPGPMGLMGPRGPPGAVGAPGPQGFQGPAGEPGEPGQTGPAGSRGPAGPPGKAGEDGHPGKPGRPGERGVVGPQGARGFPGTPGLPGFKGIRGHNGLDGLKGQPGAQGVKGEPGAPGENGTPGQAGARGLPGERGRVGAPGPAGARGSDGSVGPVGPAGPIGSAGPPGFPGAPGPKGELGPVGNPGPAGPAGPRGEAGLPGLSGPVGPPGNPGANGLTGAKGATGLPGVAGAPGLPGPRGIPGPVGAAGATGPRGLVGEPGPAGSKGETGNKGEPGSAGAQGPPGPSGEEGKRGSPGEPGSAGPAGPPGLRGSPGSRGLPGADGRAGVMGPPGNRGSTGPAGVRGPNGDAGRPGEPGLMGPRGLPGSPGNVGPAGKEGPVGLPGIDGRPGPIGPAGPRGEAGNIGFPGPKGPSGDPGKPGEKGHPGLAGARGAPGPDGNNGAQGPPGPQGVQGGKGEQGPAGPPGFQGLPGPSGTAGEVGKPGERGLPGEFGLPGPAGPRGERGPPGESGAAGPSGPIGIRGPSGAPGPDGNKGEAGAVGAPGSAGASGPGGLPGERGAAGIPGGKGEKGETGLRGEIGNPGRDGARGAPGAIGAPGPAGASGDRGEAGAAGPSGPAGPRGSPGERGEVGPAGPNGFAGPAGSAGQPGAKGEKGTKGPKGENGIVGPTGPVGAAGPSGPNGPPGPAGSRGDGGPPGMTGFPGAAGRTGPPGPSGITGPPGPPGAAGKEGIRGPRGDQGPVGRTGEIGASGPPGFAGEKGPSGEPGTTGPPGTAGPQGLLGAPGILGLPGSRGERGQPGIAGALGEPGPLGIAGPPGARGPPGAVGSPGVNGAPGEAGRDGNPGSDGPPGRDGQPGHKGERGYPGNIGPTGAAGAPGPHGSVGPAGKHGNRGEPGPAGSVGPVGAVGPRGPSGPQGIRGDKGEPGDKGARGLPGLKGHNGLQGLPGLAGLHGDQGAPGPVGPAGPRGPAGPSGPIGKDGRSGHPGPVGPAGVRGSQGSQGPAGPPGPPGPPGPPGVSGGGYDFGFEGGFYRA
Source text: High-resolution proton NMR spectroscopy is used to illustrate the behavior of the linker peptides […] (SEQ ID NO: 2 or gb1), […] (SEQ ID NO: 3 or trpzip6), […] (SEQ ID NO: 4 or trpzip5) and […] (SEQ ID NO: 5 or trpzip4) in aqueous solutions. The peptides were synthesized using standard Fmoc chemistry and purified by reverse-phase HPLC. Their identity was confirmed by mass-spectroscopy and NMR spectroscopy. For NMR studies, a volume of (400-X) μL of a peptide dissolved in pure water was mixed with 50 μL of a 10×PBS (phosphate-buffered saline) supplemented by sodium phosphate to a final concentration of 50 mM and with 50 μL of deuterated water (D2O) to form the reference sample (where X=0) and with a certain volume (X μL) of rat-tail collagen type I (at 3.6 to 4 mg/ml in 0.02 N acetic acid from BD Bioscience), (where X is adjusted to achieve the desired final concentration of collagen), with 50 μL of the 10× modified PBS and with 50 μL of deuterated water (D2O) to form the peptide-collagen complex. The pH value of the reference peptide samples was adjusted to match the pH of the final peptide-collagen complex in order to facilitate NMR spectral comparison.
The peptide-collagen solutions were subjected to gelation under magnetic field guidance (see Example 7) followed by the measurement of fibril alignment (Ma 2008) as a semi-quantitative indication of peptide-collagen binding. […]

pooled human plasma [2] = test: Prothrombin time (PT, thromboplastin) clotting assay; assay type: biochemical
Description: (§1) Prothrombin (clotting) time (PT) or activated partial thromboplastin (clotting) time (APTT) assays were carried out at certain concentrations of the thrombin inhibitors of the present invention using pooled human plasma with addition of thromboplastin or activated partial thromboplastin to initiate clotting. The assays employed kits from Biopool International (Ventura, Calif., USA) or from Pacific Haemostasis (Middletown, Va., USA) using the procedures supplied by the manufacturer. Briefly, the stock solution of an inhibitor (with the concentration determined using UV-based OD determination, see Gill 1989) is diluted in a buffer of 20 mM HEPES and 150 mM NaCl at pH 7.4 (HBS) to a final volume of 50 μL, to which is added the reconstituted normal plasma (Product #CMS-176172 from Fisher Scientific) in an equal volume. This solution mixture is equilibrated at 37° C. for 2 minutes before 50 μL of the APTT-10XL solution (CMS-022927) is introduced forcibly to ensure proper mixing. This new mixture was incubated at 37° C. for another 5 minutes, which is followed by the addition of 50 μL of 0.02 M […] (Fisher Scientific CMS-022925) pre-warmed at 37° C. For the prothrombin time (PT) assay, an inhibitor is diluted in HBS to a final volume of 25 μL, to which is added the reconstituted control plasma (Fisher Scientific CMS-176172) in an equal volume. This solution mixture is equilibrated at 37° C. for 5 minutes before addition of 100 μL of the thromboplastin solution (CMS-176099) pre-warmed at 37° C. For APTT assays, inhibitory activities of the peptides are expressed as concentrations needed to achieve 50% of the maximum delay in clotting time (MCT50) as compared to the absence of thrombin inhibitors (Maraganore 1989). For PT assays, inhibitory activities are measured as the concentrations of the peptides that prolong the clotting time by 50% (IC50) of that of the normal control plasma (Maraganore 1990). PT and APTT assays were also carried out using slightly modified experimental procedures. Thus, 50 μL of a control plasma (Pacific Hemostasis) solution was added to 100 μL HBS (20 mM HEPES and 150 mM NaCl at pH 7.4) containing varied concentrations of the peptides of this invention. After incubation at 37° C. for 5 min, the mixture was added to 50 μL of the thromboplastin or activated partial thromboplastin reagent. Clotting of the plasma was monitored by change in absorbance at 420 nm using a SpectraMax™ plate reader.

thrombin = thrombin (Homo sapiens, UniProt P00734); test: Fibrinogen clotting assay (concentration needed to double the clotting time = IC50); assay type: biochemical; conditions: IC50 (anti-clotting), T = 37° C.
Description: The same enzyme kinetic assays were used to determine the inhibitory activities of MH2 and two MH2-derived peptides, MH2-allGS and MH2-GS (Table 4). Clotting assays were carried out to determine the inhibitory activities of the rest of the MH2 peptides by use of the protocols described previously (DiMaio 1990; Taka 2000; Su 2004). The assay employs bovine plasma fibrinogen dissolved at 0.1% in 50 mM Tris-Cl, 100 mM NaCl, 0.1% PEG-8000 at pH 7.6 (i.e. the clotting buffer). In addition to the use of optical densities or ODs (Gill 1989), concentrations of the peptide stock solutions were ranked (and corrected when necessary) by use of quantitative proton NMR spectroscopy (Cavaluzzi 2002). Each assay mixture contained a certain concentration of the peptide, and the reaction was started by the addition of human thrombin to a final concentration of approximately 0.5 nM. Optical absorbance of the assay mixtures was measured at 420 nm using the Spectramax™ plate reader. The onset clotting time was determined as an intersection of the baseline and the tangent line at point of inflection of the clotting curve. The concentration of an MH2 peptide needed to double the clotting time was defined as IC50 (DiMaio 1990) as illustrated in FIG. 4 and summarized in Table 4. The correlation between IC50 values and linker unfolding is similar to that for the BTI series of inhibitors (Table 3). […] (Table 3).

pooled human plasma [3] = test: Activated partial thromboplastin time (APTT) clotting assay; assay type: biochemical; conditions: 37° C.; concentration for 50% of maximum delay in clotting time; read-out: MTC50 (APTT)
Description: as §1

[4] = system: FeCl3-induced venous thrombosis (vena cava); test: FeCl3-induced venous model of thrombosis in rats (thrombus weight); assay type: in vivo; conditions: rat, single-bolus injection via tail vein
Description: Male Sprague-Dawley rats (250-310 g; Charles River Laboratories, St-Constant, QC, Canada) were acclimated for at least 3 days prior to the start of the study. Animals were housed in microisolator cages and were kept on a 12-hr light/dark cycle with constant temperature and humidity. Food and water were provided ad libitum. Various anti-thrombotic agents and peptides of this invention were dissolved in saline (0.9% sodium chloride) prior to use.
The FeCl3-induced venous model of thrombosis in rats was generated as described by Wang and Xu (Wang 2005) with some modifications (Couture 2011). Briefly, rats were anesthetized with a 2.5% isoflurane/oxygen mixture and placed on a heat source (35-37° C.). The vena cava was then exposed via a midline incision and the region between the renal and iliolumbar veins was isolated. […]
Protein content of the thrombus was also measured according to protocol by Wang (Wang 2005). […] Contents of amino acids and small peptides were measured at OD280 with digestion buffer used as a blank.
Statistical analysis was conducted using GraphPad™ Prism (GraphPad Software Inc., San Diego Calif., USA). Data were analyzed using one-way ANOVA with post-hoc Bonferroni correction for multiple comparisons. The relationship between thrombus weight and thrombus volume was determined by linear regression. […]

[5] = system: fresh blood withdrawn from rats with venous thrombosis; test: Clotting time (aPTT) of fresh blood withdrawn from treated rats; assay type: in vivo; conditions: rat, 0.2 mg/kg bolus + 0.00433 mg/kg/min infusion; 20 minutes after administration versus before
Description: FIG. 23 illustrates the clotting times (aPTT) determined for fresh blood withdrawn from rats with venous thrombosis at three time points, the first before drug administration and vessel injury, the second at 20 minutes after FeCl3 application and the third 60 minutes following injection of the respective thrombin inhibitors. Clotting times (aPTT) are shown for different rats administered with each thrombin inhibitor, ZIP4 for MH2-wZIP4, ZIP5 for MH2-wZIP5 and T218 for BRI-T218. Dosage levels for every compound were 0.2 mg/kg for the single-bolus injection and 0.00433 mg/kg/min for the maintenance infusion,
Terminal blood samples were analyzed for aPTT within 15 to 30 minutes of collection using a Coag DX Analyzer with aPTT citrate cartridges (IDEXX Laboratories, Westbrook, Me., USA).

Row | Compound | population of unfolded species, non-zero ΔCp taken into account ([1]; 21° C.) | population of unfolded species, non-zero ΔCp taken into account ([1]; 37° C.) | reduction of deuterium coupling constant (degree of collagen fibril alignment) (rat-tail collagen type I) | concentrations required in PT-APTT curves relative to MH2-GS (pooled human plasma [2]) | IC50 (pooled human plasma [2]; 37° C., concentration that prolongs clotting time by 50%) | IC50 (thrombin) | EC50 (pooled human plasma [3]) | reduction of thrombus weight, venous model [4] | clotting time (aPTT), systemic anticoagulant effect [5]
1 | GEWTYDDATKTFTVTE (not fully specified (C-terminus)) [gb1] | 0.7 | 0.85 | not significantly affected |  |  |  |  |  | 
2 | CC[C@H](C)[C@H](N)C(=O)N[C@@H](CCCNC(=N)N)C(=O)N[C@@H](Cc1ccccc1)C(=O)N[C@H](C(=O)N[C@@H](CC(=O)O)C(=O)NCC(=O)N[C@@H](CCC(=O)O)C(=O)N[C@@H](Cc1c[nH]c2ccccc12)C(=O)N[C@H](C(=O)N[C@@H](Cc1ccc(O)cc1)C(=O)N[C@@H](CC(=O)O)C(=O)N[C@@H](CC(=O)O)C(=O)N[C@@H](C)C(=O)N[C@H](C(=O)N[C@@H](CCCCN)C(=O)N[C@H](C(=O)N[C@@H](Cc1ccccc1)C(=O)N[C@H](C(=O)N[C@@H](Cc1c[nH]c2ccccc12)C(=O)N[C@H](C(=O)N[C@@H](CCC(=O)O)C(=O)NCC(=O)N[C@@H](CC(=O)O)C(=O)N[C@@H](Cc1ccccc1)C(=O)N[C@@H](CCC(=O)O)C(=O)N[C@@H](CCC(=O)O)C(=O)N[C@H](C(=O)N1CCC[C@H]1C(=O)N[C@@H](CCC(=O)O)C(=O)N[C@@H](CCC(=O)O)C(=O)N[C@@H](Cc1ccc(O)cc1)C(=O)N[C@@H](CC(C)C)C(=O)N[C@@H](CCC(N)=O)C(=O)O)[C@@H](C)CC)[C@@H](C)O)[C@@H](C)O)[C@@H](C)O)[C@@H](C)O)[C@@H](C)O)[C@@H](C)O [MH2-wZIP5] |  |  |  | about 2.5 times | < 300 nM | 107 nM | 2000 nM | comparable to MH2-wZIP4 | only a slight prolongation of the clotting time (aPTT)
